# Measured values published in PubChem BioAssay AID330 (DTP/NCI, 2004).
# “And” between values parts separate entries of the source, which are not always exact repeats. Equal values may be shown once. Toxic doses and inconclusive results are not listed.
# Tested on: P388 leukemia ip, CD2F1 mice, survival T/C
# Assay: NCI In Vivo Anticancer Drug Screen. Data for tumor model P388 Leukemia (intraperitoneal) in CD2F1 (CDF1) mice
# Conditions: endpoint: median survival time, higher = longer survival
# Method in brief: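 Mice carrying the transplanted tumor received test compound or vehicle. Survival was recorded in each group, and the value is the treated-group measurement divided by that of the vehicle-treated control group.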
# [1] = dose: 50.0 mg/kg/injection, schedule: Q01DX009 (ip), vehicle: Klucel (hydroxypropylcellulose) (HPC)
# [2] = dose: 100.0 mg/kg/injection, schedule: Q01DX009 (ip), vehicle: Klucel (hydroxypropylcellulose) (HPC)
# [3] = dose: 50.0 mg/kg/injection, schedule: Q01DX005 (ip), vehicle: saline with Tween-80
# [4] = dose: 100.0 mg/kg/injection, schedule: Q01DX005 (ip), vehicle: saline with Tween-80
# [5] = dose: 200.0 mg/kg/injection, schedule: Q01DX005 (ip), vehicle: saline with Tween-80
# [6] = dose: 25.0 mg/kg/injection, schedule: Q04DX002 (ip), vehicle: saline with Tween-80
# [7] = dose: 50.0 mg/kg/injection, schedule: Q04DX002 (ip), vehicle: saline with Tween-80
# [8] = dose: 50.0 mg/kg/injection, schedule: Q01DX005 (ip), vehicle: Klucel (hydroxypropylcellulose) (HPC)
# [9] = dose: 100.0 mg/kg/injection, schedule: Q01DX005 (ip), vehicle: Klucel (hydroxypropylcellulose) (HPC)
# [10] = dose: 200.0 mg/kg/injection, schedule: Q01DX005 (ip), vehicle: Klucel (hydroxypropylcellulose) (HPC)
smiles,measurement,setting,value
CCCCCCC(/C=C/c1ccccc1Cl)=N\O,T/C,[1],92 % of control
same,T/C,[2],100 % of control
same,T/C,"dose: 200.0 mg/kg/injection, schedule: Q01DX009 (ip), vehicle: Klucel (hydroxypropylcellulose) (HPC)",105 % of control
CC1(C)O[C@@H]2C[C@H]3[C@@H]4CCC5=CC(=O)CC[C@]5(C)[C@@]4(F)[C@@H](O)C[C@]3(C)[C@]2(C(=O)CO)O1,T/C,"dose: 12.5 mg/kg/injection, schedule: Q01DX009 (ip), vehicle: saline with Tween-80",109 % of control
same,T/C,"dose: 25.0 mg/kg/injection, schedule: Q01DX009 (ip), vehicle: saline with Tween-80",86 % of control
C1=CC2C(O1)OC2c1ccc2ccccc2c1 (configuration not stated),T/C,"dose: 7.5 mg/kg/injection, schedule: Q01DX005 (ip), vehicle: Klucel + Tween-80",114 % of control
same,T/C,"dose: 15.0 mg/kg/injection, schedule: Q01DX005 (ip), vehicle: Klucel + Tween-80",100 % of control and 97 % of control
same,T/C,"dose: 30.0 mg/kg/injection, schedule: Q01DX005 (ip), vehicle: Klucel + Tween-80",89 % of control
same,T/C,"dose: 60.0 mg/kg/injection, schedule: Q01DX005 (ip), vehicle: Klucel + Tween-80",89 % of control and 97 % of control
CCOC(=O)C(N=Nc1ccc(C)cc1Br)C(C)=O (configuration not stated),T/C,[3],102 % of control
same,T/C,[4],93 % of control
same,T/C,[5],93 % of control
C=C(C)C1CC2=C(C(=O)OC)C=C(O2)C(C(=C)C)C2OC(=O)/C(=C\C1O)C2OC (configuration not stated),T/C,"dose: 11.88 mg/kg/injection, schedule: Q01DX005 (ip), vehicle: saline + alcohol",99 % of control
same,T/C,"dose: 23.75 mg/kg/injection, schedule: Q01DX005 (ip), vehicle: saline + alcohol",96 % of control
same,T/C,"dose: 47.5 mg/kg/injection, schedule: Q01DX005 (ip), vehicle: saline + alcohol",101 % of control
same,T/C,"dose: 95.0 mg/kg/injection, schedule: Q01DX005 (ip), vehicle: saline + alcohol",108 % of control
same,T/C,"dose: 190.0 mg/kg/injection, schedule: Q01DX005 (ip), vehicle: saline + alcohol",99 % of control
CCn1c(=O)c2n[nH]nc2n(CCO)c1=O,T/C,[1],97 % of control
same,T/C,[2],100 % of control
CNC1C(O)C2Oc3c(cc(O)c4c3C(=O)c3cc5c(c(O)c3C4=O)C(OC)CC(C)(O)C5)C(C)(O2)C1O (configuration not stated),T/C,"dose: 0.62 mg/kg/injection, schedule: Q01DX009 (ip), vehicle: saline",151 % of control
same,T/C,"dose: 1.25 mg/kg/injection, schedule: Q01DX009 (ip), vehicle: saline",173 % of control
same,T/C,"dose: 2.5 mg/kg/injection, schedule: Q01DX009 (ip), vehicle: saline",115 % of control
O=c1c(CN(CCO)CCO)c(-c2ccccc2)sc2ccccc12,T/C,"dose: 12.5 mg/kg/injection, schedule: Q04DX002 (ip), vehicle: saline with Tween-80",100 % of control
same,T/C,[6],100 % of control
same,T/C,[7],97 % of control
same,T/C,"dose: 100.0 mg/kg/injection, schedule: Q04DX002 (ip), vehicle: saline with Tween-80",91 % of control
C=C(C)C1Cc2c(ccc3c(=O)c4c(oc23)c(=O)oc2cc(OC)c(OC)cc24)O1 (configuration not stated),T/C,"dose: 100.0 mg/kg/injection, schedule: Q04DX003 (ip), vehicle: saline with Tween-80",103 % of control
same,T/C,"dose: 200.0 mg/kg/injection, schedule: Q04DX003 (ip), vehicle: saline with Tween-80",98 % of control
same,T/C,"dose: 400.0 mg/kg/injection, schedule: Q04DX003 (ip), vehicle: saline with Tween-80",105 % of control
C=CCc1cc(C(CC)C(CC)c2ccc(OCCN(CC)CC)c(CC=C)c2)ccc1OCCN(CC)CC (configuration not stated),T/C,[3],95 % of control
same,T/C,[4],98 % of control
same,T/C,[5],101 % of control
S=P1(Sc2ccccc2)Oc2ccccc2O1,T/C,"dose: 12.5 mg/kg/injection, schedule: Q01DX001 (ip), vehicle: saline with Tween-80",99 % of control
same,T/C,"dose: 25.0 mg/kg/injection, schedule: Q01DX001 (ip), vehicle: saline with Tween-80",100 % of control
same,T/C,"dose: 50.0 mg/kg/injection, schedule: Q01DX001 (ip), vehicle: saline with Tween-80",106 % of control
same,T/C,"dose: 100.0 mg/kg/injection, schedule: Q01DX001 (ip), vehicle: saline with Tween-80",90 % of control
C=CCOc1cc2c(cc1C(C)c1ccc(OCCC)cc1)OCO2 (configuration not stated),T/C,[3],97 % of control
same,T/C,[4],102 % of control
same,T/C,[5],107 % of control
Nc1nc(F)nc2c1ncn2C1OC(CO)C(O)C1O (configuration not stated),T/C,"dose: 53.0 mg/kg/injection, schedule: Q03HX024 (ip), vehicle: saline with Tween-80",253 % of control
same,T/C,"dose: 80.0 mg/kg/injection, schedule: Q03HX024 (ip), vehicle: saline with Tween-80",283 % of control
same,T/C,"dose: 120.0 mg/kg/injection, schedule: Q03HX024 (ip), vehicle: saline with Tween-80",123 % of control
Nc1nc2c([nH]c(=O)n2C2OC(CO)C(O)C2O)c(=O)[nH]1 (configuration not stated),T/C,"dose: 50.0 mg/kg/injection, schedule: Q01DX005 (ip), vehicle: saline",109 % of control
same,T/C,"dose: 100.0 mg/kg/injection, schedule: Q01DX005 (ip), vehicle: saline",110 % of control
same,T/C,"dose: 200.0 mg/kg/injection, schedule: Q01DX005 (ip), vehicle: saline",112 % of control
Cc1ccc(S(=O)(=O)/C(=N\O)c2ccc(Cl)cc2)cc1,T/C,[8],96 % of control
same,T/C,[9],107 % of control
same,T/C,[10],95 % of control
C[N+](C)(C)CCc1ccc2ccccc2c1,T/C,"dose: 25.0 mg/kg/injection, schedule: Q04DX002 (ip), vehicle: saline + alcohol",96 % of control
same,T/C,"dose: 50.0 mg/kg/injection, schedule: Q04DX002 (ip), vehicle: saline + alcohol",92 % of control
same,T/C,"dose: 100.0 mg/kg/injection, schedule: Q04DX002 (ip), vehicle: saline + alcohol",106 % of control and 108 % of control
[O-][N+](O)=C1c2ccccc2-c2ccccc21,T/C,"dose: 100.0 mg/kg/injection, schedule: Q04DX003 (ip), vehicle: saline",100 % of control
same,T/C,"dose: 200.0 mg/kg/injection, schedule: Q04DX003 (ip), vehicle: saline",103 % of control
same,T/C,"dose: 400.0 mg/kg/injection, schedule: Q04DX003 (ip), vehicle: saline",102 % of control
O=NC1C2CCC(C2)C1N=O.[Co].[c-]1[c-][c-][cH-][c-]1 (configuration not stated),T/C,"dose: 12.5 mg/kg/injection, schedule: Q01DX005 (ip), vehicle: saline with Tween-80",96 % of control
same,T/C,"dose: 25.0 mg/kg/injection, schedule: Q01DX005 (ip), vehicle: saline with Tween-80",98 % of control
same,T/C,[3],98 % of control and 92 % of control
O=C(O)C(=Cc1c2ccccc2cc2ccccc12)C(=O)O,T/C,[3],95 % of control
same,T/C,[4],99 % of control
same,T/C,[5],114 % of control
O=C(/C=C/c1ccccc1)Oc1ccccc1[N+](=O)[O-],T/C,"dose: 100.0 mg/kg/injection, schedule: Q01DX001 (ip), vehicle: Klucel (hydroxypropylcellulose) (HPC)",92 % of control
same,T/C,"dose: 200.0 mg/kg/injection, schedule: Q01DX001 (ip), vehicle: Klucel (hydroxypropylcellulose) (HPC)",93 % of control
same,T/C,"dose: 400.0 mg/kg/injection, schedule: Q01DX001 (ip), vehicle: Klucel (hydroxypropylcellulose) (HPC)",92 % of control
C=CC(=O)CC1(C(=O)OC)NC(=S)NC(=O)C1C#N (configuration not stated),T/C,"dose: 60.0 mg/kg/injection, schedule: Q01DX005 (ip), vehicle: Klucel (hydroxypropylcellulose) (HPC)",102 % of control
same,T/C,"dose: 120.0 mg/kg/injection, schedule: Q01DX005 (ip), vehicle: Klucel (hydroxypropylcellulose) (HPC)",102 % of control
same,T/C,"dose: 240.0 mg/kg/injection, schedule: Q01DX005 (ip), vehicle: Klucel (hydroxypropylcellulose) (HPC)",98 % of control
COc1ccc(-c2cc(C(=O)Nc3cc(Cl)cc(Cl)c3)c3ccccc3n2)cc1,T/C,[3],91 % of control
same,T/C,[4],93 % of control
same,T/C,[5],91 % of control
COC(=O)c1c(/C(=N/Nc2ccc([N+](=O)[O-])cc2)[N+](=O)[O-])ssc1=N,T/C,[8],103 % of control
same,T/C,[9],97 % of control
same,T/C,[10],103 % of control
N#[O+].O.O=N[O-].O=N[O-].O=N[O-].O=N[O-].[Ru],T/C,"dose: 3.13 mg/kg/injection, schedule: Q04DX003 (ip), vehicle: water",113 % of control
same,T/C,"dose: 6.25 mg/kg/injection, schedule: Q04DX003 (ip), vehicle: water",106 % of control and 118 % of control
C[CH2][Ge]([CH2]C)[CH2]C.C[CH2][Ge]([CH2]C)[CH2]C.[CH3][Ge][CH3],T/C,"dose: 50.0 mg/kg/injection, schedule: Q01DX009 (ip), vehicle: saline",90 % of control
same,T/C,"dose: 100.0 mg/kg/injection, schedule: Q01DX009 (ip), vehicle: saline",90 % of control
same,T/C,"dose: 200.0 mg/kg/injection, schedule: Q01DX009 (ip), vehicle: saline",92 % of control
O=C1Nc2ccccc2C1=O,T/C,"dose: 50.0 mg/kg/injection, schedule: Q01DX009 (ip), vehicle: saline with Tween-80",100 % of control
same,T/C,"dose: 100.0 mg/kg/injection, schedule: Q01DX009 (ip), vehicle: saline with Tween-80",101 % of control
same,T/C,"dose: 200.0 mg/kg/injection, schedule: Q01DX009 (ip), vehicle: saline with Tween-80",105 % of control
O=C1C(C(=Nc2cccc(Cl)c2)c2ccccc2)=C(O)c2ccccc21,T/C,[6],93 % of control
same,T/C,[7],95 % of control
